In patent US5225607A, “Insecticidal ethers” (Imperial Chemical Industries PLC, priority 1985, dated 1993) one finds pest or weed control and mortality data, which are given here for seven compounds.

Holding throughout (format): in vivo
Assay [1] has as its system Musca domestica. Nature of the assay: Knockdown test, Musca domestica (houseflies - adults). To be noted: cotton wool/sugar, 4 hours, read-out: grading of knockdown, MD/KD. Summed up:
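Adult houseflies were exposed to the compound as aqueous acetone preparations with 0.01% Lissapol NX wetting agent, at 500, 250 or 100 ppm. Knockdown was graded A (80–100%), B (50–79%) or C (<50%).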

The next assay relates to Tetranychus urticae. The assay can be described thus: Insecticidal/acaricidal test, Tetranychus urticae (spider mites - adult), contact. To be noted: 72 h, French bean leaf, 3 days, read-out: grading of mortality, TU. In a few lines:
(§1)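 Compound dissolved in acetone, diluted with water containing 0.01% wetting agent to 500, 250 or 100 ppm. Pests on host plant or food; pests and/or medium treated. Mortality scored 1–3 days later, graded A (80–100%; 70–100% for S. exigua), B (50–79%; 50–69%), C (<50%).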

In the next assay the test system is Nilaparvata lugens. Nature of the assay: Insecticidal test, Nilaparvata lugens (brown planthopper), contact. The conditions noted are these: 72 h, Cabbage leaf, 3 days, read-out: grading of mortality, NL. In a few lines: as §1
The test system of assay [2] is Musca domestica. Nature of the assay: Insecticidal test, Musca domestica (houseflies - adults), contact. To be noted: 24 h, cotton wool/sugar, 1 day, read-out: grading of mortality, MD. In a few lines: as §1
The subject of a further assay is Heliothis virescens. Nature of the assay: whole plant or invertebrate. The conditions noted are these: in Gossypium hirsutum, 72 h, read-out: grading of mortality, HV. Summed up:
as §1

A further assay deals with Blattella germanica. The assay can be described thus: Insecticidal test, Blattella germanica (cockroach nymphs), residual. To be noted: 72 h, plastic pot, 3 days, read-out: grading of mortality, BG. Summed up:
as §1

In the next assay the test system is Diabrotica balteata. The assay can be described thus: Insecticidal test, Diabrotica balteata (rootworm larvae), residual. The conditions noted are these: 72 h, filter paper/maize seed, 3 days, read-out: grading of mortality, DB. Summed up: as §1
In a further assay the test system is Myzus persicae. Nature of the assay: Insecticidal test, Myzus persicae (aphids), contact. To be noted: 72 h, Chinese Cabbage leaf, 3 days, read-out: grading of mortality, MP. Summed up: as §1

Some results are limits rather than exact numbers.

As a reminder, the mortality is the percentage killed.

`FC(F)(F)Oc1ccc(C(F)(COCc2cccc(Oc3ccccc3)c2)C(F)(F)F)cc1` (centres unmarked) [Compound 82, 1,1,1,2-Tetrafluoro-2-(4-trifluoromethoxyphenyl)-3-(3-phenoxybenzyloxy)propane]: the pest or weed control at 500 ppm with Musca domestica [1] is 80 to 100%. Moreover, the mortality at 500 ppm is under 50% in the assay on Tetranychus urticae; under 50% in the assay on Nilaparvata lugens; 80 to 100% in the assay on Musca domestica [2]; 80 to 100% with Heliothis virescens; 80 to 100% in the assay with Blattella germanica; 80 to 100% in the assay with Diabrotica balteata. In addition, the mortality at 500 ppm in the assay on Myzus persicae was in the range of 80 to 100%.
Turning to `Fc1ccc(COC=C(c2ccc3c(c2)CCC3)C(F)(F)F)cc1Oc1ccccc1` [Compound 459, 1,1,1-trifluoro-2-(5-indanyl)-3-(3-phenoxy-4-fluorobenzyloxy)prop-2-ene], the pest or weed control at 500 ppm in the assay on Musca domestica [1] was in the range of 50 to 79%. Moreover, the mortality at 500 ppm in the assay on Tetranychus urticae is 80 to 100%; with Nilaparvata lugens, under 50%; with Musca domestica [2], under 50%; in the assay on Heliothis virescens it was under 50%; in the assay on Blattella germanica, under 50%; in the assay with Diabrotica balteata, 80 to 100%. Moreover, in the assay on Myzus persicae, the mortality at 500 ppm is under 50%.
In the case of `CCOc1ccc(C(COCc2c(F)c(F)c(C)c(F)c2F)C(F)(F)F)cc1` (centres unmarked) [Compound 2, 1,1,1-Trifluoro-2-(4-ethoxyphenyl)-3-(4-methyl-2,3,5,6-tetrafluorobenzyloxy)propane], the pest or weed control at 500 ppm with Musca domestica [1] was under 50%. The mortality at 500 ppm was under 50% in the assay on Tetranychus urticae; 80 to 100% in the assay with Nilaparvata lugens; 50 to 79% with Musca domestica [2]; under 50% with Heliothis virescens; 80 to 100% in the assay on Blattella germanica; 80 to 100% in the assay with Diabrotica balteata. Moreover, in the assay on Myzus persicae, the mortality at 500 ppm lay within 50 to 79%.
On to `Fc1ccc(COC=C(c2ccc(Cl)cc2)C(F)(F)F)cc1Oc1ccccc1` [Compound 458, 1,1,1-trifluoro-2-(4-chlorophenyl)-3-(3-phenoxy-4-fluorobenzyloxy)prop-2-ene], for which the pest or weed control at 500 ppm with Musca domestica [1] is 80 to 100%. The mortality at 500 ppm with Tetranychus urticae is under 50%; in the assay with Nilaparvata lugens, 80 to 100%; with Musca domestica [2], 80 to 100%; in the assay on Heliothis virescens, 80 to 100%; in the assay on Blattella germanica, 50 to 79%; in the assay with Diabrotica balteata, 80 to 100%. The mortality at 500 ppm with Myzus persicae is under 50%.
Consider `CCOc1ccc(C(COCc2ccc(F)c(Oc3ccc(Br)cc3)c2)C(F)(F)F)cc1` (centres unmarked) [Compound 6, 1,1,1-Trifluoro-2-(4-ethoxyphenyl)-3-(3-(4-bromophenoxy)-4-fluorobenzyloxy)propane], for which, in the assay on Musca domestica [1], the pest or weed control at 500 ppm lay within 80 to 100%. The mortality at 500 ppm in the assay with Tetranychus urticae, in the assay on Nilaparvata lugens, in the assay on Musca domestica [2], in the assay on Heliothis virescens, in the assay on Blattella germanica and with Diabrotica balteata was 80 to 100% each time. The mortality at 500 ppm in the assay on Myzus persicae was 80 to 100%.
Take `CCOc1ccc(C(O)(COCc2cccc(Oc3ccccc3)c2)C(F)(F)F)cc1` (centres unmarked) [Compound 112, 1,1,1-trifluoro-2-(4-ethoxyphenyl)-3-(3-phenoxybenzyloxy)propan-2-ol]: the pest or weed control at 250 ppm in the assay with Musca domestica [1] (250 ppm) fell in the range of 50 to 79%. Also, the mortality at 250 ppm was under 50% in the assay on Tetranychus urticae (250 ppm); under 50% in the assay with Nilaparvata lugens (250 ppm); under 50% with Musca domestica [2] (250 ppm); under 50% in the assay with Heliothis virescens; under 50% in the assay with Blattella germanica (250 ppm); 80 to 100% in the assay with Diabrotica balteata (250 ppm). Besides, the mortality at 250 ppm in the assay with Myzus persicae (250 ppm) was under 50%.
On to `CCOc1ccc(C(O)(COCc2ccc(F)c(Oc3ccc(Cl)cc3)c2)C(F)(F)F)cc1` (centres unmarked) [Compound 117, 1,1,1-Trifluoro-2-(4-ethoxyphenyl)-3-(3-(4-chlorophenoxy)-4-fluorobenzyloxy)propan-2-ol], for which the pest or weed control at 500 ppm with Musca domestica [1] was in the range of 80 to 100%. The mortality at 500 ppm in the assay on Tetranychus urticae is under 50%; in the assay with Nilaparvata lugens, under 50%; in the assay on Musca domestica [2] it was 50 to 79%; in the assay with Heliothis virescens it was under 50%; in the assay with Blattella germanica, under 50%; with Diabrotica balteata it was under 50%. Also, the mortality at 500 ppm in the assay with Myzus persicae is under 50%.
